We go through six compounds from US4753984A (priority 1985, dated 1988).

The nature of data set [1]: Localization of radiolabelled Daunorubicin drugs in organs of 3 LL tumor-bearing mice. The following applies: i.v. 100 micrograms Daunorubicin equivalent, 48 or 72 hours after injection. On the procedure: The radiolabelled Daunorubicin drugs (14-^14 C) are injected intravenously 14 days after implantation of 10^5 3 LL cells. Either 100 micrograms of free Daunorubicin (5×10^5 cpm), or 100 micrograms of Daunorubicin in macromolecular form (5×10^5 cpm) is injected. Localization is measured after the intravenous injection of various products.
The mice are sacrificed by cervical elongation 48 hours or 72 hours after injection. The organs are removed, dissolved by a tissue solubilizing agent (NCS Amersham) at a rate of 200 mg to 300 mg of organ/ml of solubilizing agent, then counted in a liquid scintillant. […] The results are recapitulated in FIG. 3.

The test system of the next data set is 3 LL cells. In words: In vivo antitumor activity on mice implanted with 3 LL cells (tumor growth and survival). Also noted: species or system C 57 BL/6 male mice. The following applies: for inhibition of tumor growth relative to the control lot: Daunorubicin 7x10 micrograms, polymer 8x200 microgram equivalents of Daunorubicin (i.v. days 2, 6, 10, i.p. days 14-30), FIG. 4. On the procedure: The in vivo antitumor activity of the macromolecular drugs is evaluated on C 57 BL/6 male mice aged a total of about 10 weeks. 10^5 3 LL cells are implanted in each mouse by intramuscular injection of 100 microliters of a cellular suspension of 10^6 cells/ml in the right posterior paw.
One lot of 10 mice, serving as a control, is injected with 7×100 microliters of physiologic serum.
One lot of 10 mice is treated with 7×10 micrograms of free Daunorubicin (dosage limited due to the toxicity of the free drug).
After intramuscular injection of the tumoral cells, the macromolecular prodrug is injected intravenously at days 2, 6 and 10, then intraperitoneally at days 14, 18, 22, 26 and 30.
Two parameters are recorded to evaluate the in vivo antitumoral activity: the inhibition of tumor growth and animal survival.

For data set [2] the following is noted: comparison value, source not given; cited from earlier work.
In another data set the target is chymotrypsin (Bos taurus, UniProt P00766). Nature of the data set: Proteolyse in vitro: chymotrypsic hydrolyse, liberated daunorubicin derivative analysed by thin layer chromatography. The data set is classed as biochemical. The following applies: Tris-HCl buffer 0.05 M, CaCl2 10 mM, pH 8.0; TLC analysis. On the procedure: The chymotrypsic hydrolyse is effected in a Tris-HCl buffer 0.05 M, CaCl2 10 mM at pH=8.0.
On analysis, the derivatives of the daunorubicin are liberated after enzymatic hydrolysis, by thin layer chromatography.

For a further data set, the target named is T1, trypsin (Bos taurus, UniProt P00760).
T1 construct: gene PRSS1
T1 sequence (P00760 24-246): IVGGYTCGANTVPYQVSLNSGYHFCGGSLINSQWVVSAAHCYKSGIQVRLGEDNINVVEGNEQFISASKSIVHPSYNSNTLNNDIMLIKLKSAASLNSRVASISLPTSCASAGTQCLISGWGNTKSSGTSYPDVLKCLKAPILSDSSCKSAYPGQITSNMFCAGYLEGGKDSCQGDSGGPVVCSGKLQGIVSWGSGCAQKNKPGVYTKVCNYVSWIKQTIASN
In words: Proteolyse in vitro: trypsic hydrolysis, liberated daunorubicin derivative analysed by thin layer chromatography. The following applies: 0.1M sodium bicarbonate, CaCl2 10 mM, pH 8.7; TLC analysis. The data set is classed as biochemical. Here is the method: On analysis, the derivatives of the daunorubicin are liberated after enzymatic hydrolysis, by thin layer chromatography. For example:
Trypsic hydrolysis is carried out in a 0.1M solution of sodium bicarbonate, CaCl2, 10 mM at pH, 8.7.

`COc1cccc2c1C(=O)c1c(O)c3c(c(O)c1C2=O)C[C@@](O)(C(C)=O)C[C@@H]3O[C@H]1C[C@H](N)[C@H](O)[C@H](C)O1` [Daunorubicin]: in data set [1], the “radioactivity of the spleen” value was “significant accumulation of the radioactivity” and the “spleen mass / atrophy” value is “severe atrophy of the spleen”. For the same compound, the “inhibition of tumor growth relative to the control lot” value with 3 LL cells was “does not influence in a significant manner tumoral growth”.
As for `COc1cccc2c1C(=O)c1c(O)c3c(c(O)c1C2=O)C[C@@](O)(C(=O)CO)C[C@@H]3O[C@H]1C[C@H](N)[C@H](O)[C@H](C)O1` [adriamycin], the “time to disappear from plasma” value in data set [2] is 20 min.
With “polycarboxylated linear polymer of 2-N-acryloylamino-2-hydroxymethyl-1,3-propanediol substituted by the -Gly-Gly-L-Tyr-Daunorubicin sequence [Example 1]”, the “derivative of daunorubicin liberated after chymotrypsic hydrolysis” value (shortened to “derivative … after chymotrypsic hydrolysis”) on chymotrypsin was “frees the daunorubicin”.
For “polycarboxylated linear polymer of 2-N-acryloylamino-2-hydroxymethyl-1,3-propanediol substituted by the -Gly-Gly-L-Tyr-L-Leu-Daunorubicin sequence [Example 2]”, at chymotrypsin, the “derivative … after chymotrypsic hydrolysis” value is reported as “liberates leucyl-daunorubicin”. The “spleen mass / atrophy” value in data set [1] is “mass comparable to that of the healthy animals”. The “T/C (survival of the animals treated relative to the control animals)” value in the data set on 3 LL cells (8x200 microgram equivalents of Daunorubicin, FIG. 5) came to 145. For the same compound, in the data set with 3 LL cells, the “inhibition of tumor growth relative to the control lot” value is listed as “significant inhibition of tumor growth”.
“polycarboxylated linear polymer of 2-N-acryloylamino-2-hydroxymethyl-1,3-propanediol substituted by the Gly-L-Phe-L-Ala-L-Leu-Daunorubicin sequence [Example 3]”: at chymotrypsin, the “derivative … after chymotrypsic hydrolysis” value was “frees alaninyl-leucyl-daunorubicin”.
On to “polycarboxylated linear polymer of 2-N-acryloylamino-2-hydroxymethyl-1,3-propanediol substituted by the Gly-L-Pro-L-Arg-L-Leu-Daunorubicin sequence [Example 6]”, for which the “derivative of daunorubicin liberated after trypsic hydrolysis” value at trypsin is reported as “freeing leucyl-daunorubicin”.
